{"source": "PubChem BioAssay AID248", "about": "(DTP/NCI, 2004)", "test_system": "L1210 leukemia ip in BDF1 mice, survival T/C", "test": "NCI In Vivo Anticancer Drug Screen. Data for tumor model L1210 Leukemia (intraperitoneal) in B6D2F1 (BDF1) mice", "conditions": "higher = longer survival", "in_short": "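Transplantable tumor model; survival measured in treated vs vehicle control mice. Value = treated/control.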", "note": "“And” between values parts separate entries of the source, which are not always exact repeats. Equal values may be shown once. Toxic doses and inconclusive results are not listed.", "data": [{"compound": "O=NN(CCCl)C(=O)NC1CCCCC1", "values": [{"measurement": "T/C", "setting": "endpoint: mean survival time, dose: 9.0 mg/kg/injection, schedule: Q01DX003 (ip), vehicle: carboxymethylcellulose (CMC)", "result": "154 % of control"}, {"measurement": "T/C", "setting": "endpoint: mean survival time, dose: 9.3 mg/kg/injection, schedule: Q## X004 (ip), vehicle: carboxymethylcellulose (CMC)", "result": "112 % of control"}, {"measurement": "T/C", "setting": "endpoint: mean survival time, dose: 9.37 mg/kg/injection, schedule: Q01DX001 (ip), vehicle: saline", "result": "102 % of control"}, {"measurement": "T/C", "setting": "endpoint: mean survival time, dose: 10.0 mg/kg/injection, schedule: Q01DX001 (ip), vehicle: carboxymethylcellulose (CMC)", "result": "116 % of control"}, {"measurement": "T/C", "setting": "endpoint: mean survival time, dose: 10.0 mg/kg/injection, schedule: Q01DX001 (iv), vehicle: clinical formulation", "result": "160 % of control"}, {"measurement": "T/C", "setting": "endpoint: mean survival time, dose: 10.0 mg/kg/injection, schedule: Q## X032 (ip), vehicle: carboxymethylcellulose (CMC)", "result": "122 % of control"}, {"measurement": "T/C", "setting": "endpoint: mean survival time, dose: 12.5 mg/kg/injection, schedule: Q01DX009 (ip), vehicle: Klucel (hydroxypropylcellulose) (HPC)", "result": "172 % of control"}, {"measurement": "T/C", "setting": "endpoint: mean survival time, dose: 12.5 mg/kg/injection, schedule: Q01DX Z (ip), vehicle: carboxymethylcellulose (CMC)", "result": "156 % of control"}, {"measurement": "T/C", "setting": "endpoint: mean survival time, dose: 12.5 mg/kg/injection, schedule: Q03HX024 (ip), vehicle: carboxymethylcellulose (CMC)", "result": "154 % of control"}, {"measurement": "T/C", "setting": "endpoint: mean survival time, dose: 15.0 mg/kg/injection, schedule: Q01DX001 (iv), vehicle: Klucel (hydroxypropylcellulose) (HPC)", "result": "152 % of control"}, {"measurement": "T/C", "setting": "endpoint: mean survival time, dose: 16.0 mg/kg/injection, schedule: Q01DX009 (ip), vehicle: saline with Tween-80", "result": "161 % of control"}, {"measurement": "T/C", "setting": "endpoint: mean survival time, dose: 16.0 mg/kg/injection, schedule: Q01DX Z (ip), vehicle: carboxymethylcellulose (CMC)", "result": "158 % of control"}, {"measurement": "T/C", "setting": "endpoint: mean survival time, dose: 16.0 mg/kg/injection, schedule: Q03HX003 (oral), vehicle: saline", "result": "161 % of control"}, {"measurement": "T/C", "setting": "endpoint: mean survival time, dose: 18.0 mg/kg/injection, schedule: Q01DX001 (ip), vehicle: carboxymethylcellulose (CMC)", "result": "159 % of control"}, {"measurement": "T/C", "setting": "endpoint: mean survival time, dose: 18.5 mg/kg/injection, schedule: Q01DX001 (ip), vehicle: carboxymethylcellulose (CMC)", "result": "153 % of control"}, {"measurement": "T/C", "setting": "endpoint: mean survival time, dose: 18.75 mg/kg/injection, schedule: Q01DX001 (ip), vehicle: saline", "result": "109 % of control"}, {"measurement": "T/C", "setting": "endpoint: mean survival time, dose: 20.0 mg/kg/injection, schedule: Q01DX001 (ip), vehicle: carboxymethylcellulose (CMC)", "result": "160 % of control"}, {"measurement": "T/C", "setting": "endpoint: mean survival time, dose: 20.0 mg/kg/injection, schedule: Q04DX004 (ip), vehicle: Klucel (hydroxypropylcellulose) (HPC)", "result": "162 % of control"}, {"measurement": "T/C", "setting": "endpoint: mean survival time, dose: 22.0 mg/kg/injection, schedule: Q01DX001 (ip), vehicle: carboxymethylcellulose (CMC)", "result": "156 % of control"}, {"measurement": "T/C", "setting": "endpoint: mean survival time, dose: 22.0 mg/kg/injection, schedule: Q01DX001 (iv), vehicle: saline", "result": "165 % of control"}, {"measurement": "T/C", "setting": "endpoint: mean survival time, dose: 25.0 mg/kg/injection, schedule: Q03HX008 (ip), vehicle: carboxymethylcellulose (CMC)", "result": "112 % of control"}, {"measurement": "T/C", "setting": "endpoint: mean survival time, dose: 30.0 mg/kg/injection, schedule: Q01DX001 (ip), vehicle: saline", "result": "156 % of control"}, {"measurement": "T/C", "setting": "endpoint: mean survival time, dose: 32.0 mg/kg/injection, schedule: Q01DX005 (oral), vehicle: saline", "result": "121 % of control"}, {"measurement": "T/C", "setting": "endpoint: mean survival time, dose: 50.0 mg/kg/injection, schedule: Q01DX Z (ip), vehicle: carboxymethylcellulose (CMC)", "result": "118 % of control"}, {"measurement": "T/C", "setting": "endpoint: mean survival time, dose: 50.0 mg/kg/injection, schedule: Q07DX Z (ip), vehicle: carboxymethylcellulose (CMC)", "result": "158 % of control"}, {"measurement": "T/C", "setting": "endpoint: mean survival time, dose: 50.0 mg/kg/injection, schedule: Q## X004 (ip), vehicle: carboxymethylcellulose (CMC)", "result": "160 % of control"}, {"measurement": "T/C", "setting": "endpoint: mean survival time, dose: 50.0 mg/kg/injection, schedule: Q## X015 (ip), vehicle: carboxymethylcellulose (CMC)", "result": "171 % of control"}, {"measurement": "T/C", "setting": "endpoint: mean survival time, dose: 62.0 mg/kg/injection, schedule: Q01DX Z (ip), vehicle: carboxymethylcellulose (CMC)", "result": "92 % of control"}, {"measurement": "T/C", "setting": "endpoint: mean survival time, dose: 75.0 mg/kg/injection, schedule: Q## X008 (ip), vehicle: carboxymethylcellulose (CMC)", "result": "163 % of control"}, {"measurement": "T/C", "setting": "endpoint: mean survival time, dose: 97.0 mg/kg/injection, schedule: Q01DX001 (oral), vehicle: carboxymethylcellulose (CMC)", "result": "95 % of control"}, {"measurement": "T/C", "setting": "endpoint: mean survival time, dose: 100.0 mg/kg/injection, schedule: Q01DX001 (ip), vehicle: carboxymethylcellulose (CMC)", "result": "164 % of control"}, {"measurement": "T/C", "setting": "endpoint: mean survival time, dose: 100.0 mg/kg/injection, schedule: Q01DX001 (ip), vehicle: saline", "result": "104 % of control"}, {"measurement": "T/C", "setting": "endpoint: mean survival time, dose: 100.0 mg/kg/injection, schedule: Q01DX001 (oral), vehicle: saline", "result": "95 % of control"}, {"measurement": "T/C", "setting": "endpoint: mean survival time, dose: 112.0 mg/kg/injection, schedule: Q01DX001 (ip), vehicle: carboxymethylcellulose (CMC)", "result": "164 % of control"}, {"measurement": "T/C", "setting": "endpoint: mean survival time, dose: 112.0 mg/kg/injection, schedule: Q## X001 (ip), vehicle: carboxymethylcellulose (CMC)", "result": "152 % of control"}, {"measurement": "T/C", "setting": "endpoint: mean survival time, dose: 112.0 mg/kg/injection, schedule: Q## X008 (ip), vehicle: carboxymethylcellulose (CMC)", "result": "121 % of control"}, {"measurement": "T/C", "setting": "endpoint: mean survival time, dose: 112.0 mg/kg/injection, schedule: Q## X015 (ip), vehicle: carboxymethylcellulose (CMC)", "result": "119 % of control"}, {"measurement": "T/C", "setting": "endpoint: mean survival time, dose: 200.0 mg/kg/injection, schedule: Q01DX001 (ip), vehicle: Klucel (hydroxypropylcellulose) (HPC)", "result": "110 % of control"}, {"measurement": "T/C", "setting": "endpoint: mean survival time, dose: 200.0 mg/kg/injection, schedule: Q01DX001 (ip), vehicle: carboxymethylcellulose (CMC)", "result": "104 % of control"}, {"measurement": "T/C", "setting": "endpoint: mean survival time, dose: 200.0 mg/kg/injection, schedule: Q01DX001 (oral), vehicle: carboxymethylcellulose (CMC)", "result": "159 % of control"}, {"measurement": "T/C", "setting": "endpoint: mean survival time, dose: 400.0 mg/kg/injection, schedule: Q01DX001 (ip), vehicle: carboxymethylcellulose (CMC)", "result": "93 % of control"}, {"measurement": "T/C", "setting": "endpoint: median survival time, dose: 12.5 mg/kg/injection, schedule: Q01DX001 (ip), vehicle: saline with Tween-80", "result": "99 % of control and 100 % of control"}, {"measurement": "T/C", "setting": "endpoint: median survival time, dose: 25.0 mg/kg/injection, schedule: Q01DX001 (ip), vehicle: saline with Tween-80", "result": "100 % of control and 101 % of control"}, {"measurement": "T/C", "setting": "endpoint: median survival time, dose: 25.0 mg/kg/injection, schedule: Q01DX001 (oral), vehicle: Klucel (hydroxypropylcellulose) (HPC)", "result": "158 % of control"}, {"measurement": "T/C", "setting": "endpoint: median survival time, dose: 50.0 mg/kg/injection, schedule: Q01DX001 (ip), vehicle: saline with Tween-80", "result": "112 % of control and 113 % of control"}, {"measurement": "T/C", "setting": "endpoint: median survival time, dose: 200.0 mg/kg/injection, schedule: Q01DX001 (ip), vehicle: saline with Tween-80", "result": "112 % of control and 113 % of control"}]}]}
